Experimental data from ChEMBL document CHEMBL1201862, “PubChem BioAssay data set” (2004).
Activity calls are given as the source filed them.

Tests used:
Caspase-3 = biological target: T1, Caspase-3 (Homo sapiens, UniProt P42574); assay type: functional;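 also: Dose-response selectivity test against caspase-3 for candidate inhibitors of sentrin-specific proteases (SENPs)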
T1 sequence (P42574 whole entry): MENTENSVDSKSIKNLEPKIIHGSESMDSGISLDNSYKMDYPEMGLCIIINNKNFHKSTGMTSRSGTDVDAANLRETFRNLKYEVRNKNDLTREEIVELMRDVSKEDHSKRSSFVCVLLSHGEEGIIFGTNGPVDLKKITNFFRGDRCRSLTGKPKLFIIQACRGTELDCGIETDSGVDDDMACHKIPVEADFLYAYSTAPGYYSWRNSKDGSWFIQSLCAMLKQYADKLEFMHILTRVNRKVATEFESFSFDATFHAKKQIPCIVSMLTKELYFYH

[1] = NIH-3T3 fibroblast cytotoxicity, dose response, cytotoxicity control, cell-based, fluorescence, Alamar Blue, secondary assay (AID 2327); assay type: functional;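 also: NIH-3T3 mouse fibroblasts cultured with fluconazole at 8 µg/mL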
[2] = growth suppression of PTEN-null colon cells, dose response, cell-based, HCT116 PTEN knockout (AID 1047); assay type: functional;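 also: HCT116 colon tumor cells with PTEN knocked out; cells exposed to compound for 60 hours before readout; potency for loss of cell viability measured by luminescence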
[3] = biological target: T2, Sentrin-specific protease 7 (Homo sapiens, UniProt Q9BQF6); assay type: functional;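 also: Luminescence-based dose-response confirmation of ultra-high-throughput screening hits, measuring inhibition of SENP7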
T2 sequence (Q9BQF6 whole entry): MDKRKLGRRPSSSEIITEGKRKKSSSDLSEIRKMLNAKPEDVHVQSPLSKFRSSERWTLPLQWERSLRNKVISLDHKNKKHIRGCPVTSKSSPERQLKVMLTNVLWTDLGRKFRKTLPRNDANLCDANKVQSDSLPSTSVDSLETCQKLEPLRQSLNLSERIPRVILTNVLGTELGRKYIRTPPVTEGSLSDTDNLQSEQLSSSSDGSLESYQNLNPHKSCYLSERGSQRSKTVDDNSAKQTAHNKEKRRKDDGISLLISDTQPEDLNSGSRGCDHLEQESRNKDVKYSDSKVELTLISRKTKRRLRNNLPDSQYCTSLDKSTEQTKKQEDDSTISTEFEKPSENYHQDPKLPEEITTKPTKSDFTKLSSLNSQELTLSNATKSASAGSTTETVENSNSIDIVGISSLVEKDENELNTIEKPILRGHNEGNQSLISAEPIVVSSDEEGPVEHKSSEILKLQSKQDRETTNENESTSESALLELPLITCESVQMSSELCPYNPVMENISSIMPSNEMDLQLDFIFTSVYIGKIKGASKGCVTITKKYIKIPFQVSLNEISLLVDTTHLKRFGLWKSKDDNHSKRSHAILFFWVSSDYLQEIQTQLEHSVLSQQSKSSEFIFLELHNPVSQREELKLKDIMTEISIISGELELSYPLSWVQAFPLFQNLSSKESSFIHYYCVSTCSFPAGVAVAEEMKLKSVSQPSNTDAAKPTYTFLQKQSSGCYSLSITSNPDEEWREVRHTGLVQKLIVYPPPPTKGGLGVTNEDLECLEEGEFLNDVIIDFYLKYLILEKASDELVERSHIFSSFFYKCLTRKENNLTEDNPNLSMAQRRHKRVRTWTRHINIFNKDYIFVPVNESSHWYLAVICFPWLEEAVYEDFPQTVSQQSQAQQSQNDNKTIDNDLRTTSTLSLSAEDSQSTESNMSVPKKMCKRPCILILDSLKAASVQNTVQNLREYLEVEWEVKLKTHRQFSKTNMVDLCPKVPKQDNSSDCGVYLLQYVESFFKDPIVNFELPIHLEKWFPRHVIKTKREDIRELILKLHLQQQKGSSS

Hexokinase HKDC1 = biological target: T3, Hexokinase HKDC1 (Homo sapiens, UniProt Q2TB90); assay: HKDC1 hexokinase inhibitors, dose response, biochemical, W721R variant (AID 504729); assay type: functional
T3 sequence (Q2TB90 whole entry): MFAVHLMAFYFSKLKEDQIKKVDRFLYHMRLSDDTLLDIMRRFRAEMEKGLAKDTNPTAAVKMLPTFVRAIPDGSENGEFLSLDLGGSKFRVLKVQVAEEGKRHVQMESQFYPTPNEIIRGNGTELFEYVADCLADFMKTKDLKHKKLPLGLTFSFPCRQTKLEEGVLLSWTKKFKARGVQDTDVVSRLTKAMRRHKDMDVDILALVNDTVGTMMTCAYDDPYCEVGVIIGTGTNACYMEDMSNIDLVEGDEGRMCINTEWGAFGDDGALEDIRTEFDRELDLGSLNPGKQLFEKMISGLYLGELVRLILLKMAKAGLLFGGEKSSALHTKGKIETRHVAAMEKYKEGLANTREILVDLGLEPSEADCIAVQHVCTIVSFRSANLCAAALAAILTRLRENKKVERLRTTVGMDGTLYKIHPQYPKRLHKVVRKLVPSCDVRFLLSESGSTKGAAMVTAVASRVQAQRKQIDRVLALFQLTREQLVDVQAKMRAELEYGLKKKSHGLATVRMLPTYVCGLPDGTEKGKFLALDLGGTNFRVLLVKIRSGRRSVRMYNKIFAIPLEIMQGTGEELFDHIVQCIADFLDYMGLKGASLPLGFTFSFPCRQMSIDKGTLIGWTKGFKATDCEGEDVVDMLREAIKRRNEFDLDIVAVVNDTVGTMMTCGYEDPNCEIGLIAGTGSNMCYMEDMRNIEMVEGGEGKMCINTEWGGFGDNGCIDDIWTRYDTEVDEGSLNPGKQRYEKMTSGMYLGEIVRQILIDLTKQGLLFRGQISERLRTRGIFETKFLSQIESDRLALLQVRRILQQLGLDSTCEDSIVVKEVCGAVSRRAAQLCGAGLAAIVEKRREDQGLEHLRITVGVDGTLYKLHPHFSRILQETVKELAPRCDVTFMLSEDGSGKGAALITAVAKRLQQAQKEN

[4] = biological target: Heat shock protein HSP 90-alpha (Homo sapiens, UniProt P07900); assay: Luminescence-based dose response biochemical high throughput screening assay for inhibitors of the Heat Shock Protein 90 (HSP90). [Related pubchem assays: 1831 (Summary AID.), 1846 (Confirmation screen.), 1789 (Primary screen.)]

Cc1ccc(NC2=CC(=O)C(=O)c3ccccc32)cc1
active: IC50 (Caspase-3) 31 µM | EC50 [1] 20.5 µM | EC50 [2] 6.79 µM | IC50 [3] 36.7 µM

O=C(O)c1ccc(S(=O)(=O)/N=C2\C=C(Nc3ccccc3F)C(=O)c3ccccc32)cc1
active: IC50 (Hexokinase HKDC1) 3 µM | IC50 [4] 0.638 µM
